Assay results taken from patent US12161738B2, “Deodorant compositions” (The Procter & Gamble Company, priority 2019, dated 2024).

Experiments:
[1] = pH of various magnesium salts in a water solution; format: physicochemical; details: 12% in water
Experimental: The pH of magnesium carbonate, partially carbonated magnesium hydroxide, magnesium hydroxide and magnesium oxide were taken in a water solution. The pH values were recorded as follows in Table 4.

[2] = test system: Corynebacterium mucofaciens (clinical isolate); assay: Tier 1 Anaerobic MIC Assay; format: cell-based; details: raw material, BHI with 1% Tween 80, 37° C. overnight, O.D. 600
Experimental: (§1) Tier 1 Anaerobic MIC Assay
(§2) The data in Table 1 above was generated with the following test method. The purpose of this assay is to determine if a compound or formulation has an antimicrobial effect in vitro.
(§3) Procedure: (All procedures performed in anaerobic chamber except where noted)
(§4) Incubator at 37° C.; 20-200 ul 12 channel pipette; 5-50 ul 12 channel pipette; 1250 ul 8 channel Thermo Scientific Matrix pipette; 96 well plate shaker (located in incubator); Beckman Coulter deep well cap mat #267005; Beckman Coulter deep 96 well plates #267007; Falcon 96 well tissue culture plates #353072; Vortexer; Culture tubes/caps Disposable sterile gloves; Sterile petri dishes; Standard microbiological lab equipment (sterile pipettes, syringes, tips, loops, etc.); Glass bottles/flasks for media; Autoclave; Parafilm; Spectrophotometer.
(§5) BHI agar supplemented with 1% Tween 80
(§6) BHI media supplemented with 1% Tween 80
Corynebacterium mucofaciens (clinical isolate)
(§7) Prior to testing streak organisms for isolation on BHI with 1% Tween 80 plates, wrap with parafilm and place in 37° C. incubator. When isolated colonies appear remove one representative colony from each plate and place each in 5 ml of BHI with 1% Tween 80 media. […]
(§8) In row A of a 96 deep well plate pipette 180 ul of sterile BHI with 1% Tween 80 as a negative growth control. […] The next day read the O.D. 600 on a plate reader. […]

[3] = test system: Staphylococcus epidermidis (clinical isolate); assay: Tier 1 Anaerobic MIC Assay; format: cell-based; details: raw material, BHI with 1% Tween 80, 37° C. overnight, O.D. 600
Experimental: as §1, §2, §3, §4, §5, §6
Staphylococcus epidermidis (clinical isolate)
as §7, §8

Row | microbial inhibition concentration (MIC), C. mucofaciens [2] [ppm] | microbial inhibition concentration (MIC), S. epidermidis [3] [ppm] | Compound | pH in water 12% Solution [1] | pH in water 12% Solution ([1]; listed as Magnesium oxide)
1 | – | – | O=C([O-])[O-].[Mg+2] [Magnesium Carbonate] | 9.6 | –
2 | – | – | [Mg+2].[OH-].[OH-] [Magnesium Hydroxide] | 10 | –
3 | – | – | [O]=[Mg] [Magnesium Oxide] | 10.8 | highest pH observed
4 | <5 | 10 | Cc1cc(CC(C)CC(C)(C)C)n(O)c(=O)c1.NCCO (stereo not drawn) [piroctone olamine] | – | –
